Square brackets hold non-standard residues; d marks the D form. Peptide text beside a SMILES is read from it. NMeY = CN[C@@H](Cc1ccc(O)cc1)C(=O)O; NMeT = CN[C@H](C(=O)O)[C@@H](C)O; NMeL = CN[C@@H](CC(C)C)C(=O)O; Sar = CNCC(=O)O
Tests used:
[1] = Apparent permeability from apical to basolateral side in human Caco2 cells by LC-MS analysis; assay type: ADME, cell-based; details: Caco-2
[2] = Apparent permeability of the compound at 50 uM after 5 hrs by PAMPA method; assay type: physicochemical

Row | Compound | Papp A→B [1] | Papp at 5 h, 50 µM [2]
1 | CC(C)C[C@@H]1NC(=O)CNC(=O)[C@@H]2CCCN2C(=O)[C@H](Cc2ccc(O)cc2)NC(=O)[C@H](Cc2ccccc2)NC(=O)[C@@H]2CCCN2C1=O (cyclo(FYPGLP)) | 0.11 ×10⁻⁶ cm/s | 0.01 ×10⁻⁶ cm/s
2 | CC(C)C[C@@H]1NC(=O)[C@@H](CC(C)C)NC(=O)[C@H](CC(C)C)NC(=O)[C@H](Cc2ccc(O)cc2)N(C)C(=O)[C@H]2CCCN2C(=O)[C@H](CC(C)C)NC1=O (cyclo(LL[dP][NMeY]L[dL])) | 9.13 ×10⁻⁶ cm/s | 1.29 ×10⁻⁶ cm/s
3 | CC(C)C[C@@H]1NC(=O)[C@H](Cc2ccc(O)cc2)NC(=O)[C@H]2CCCN2C(=O)[C@H](CC(C)C)NC(=O)[C@H](CC(C)C)N(C)C(=O)[C@@H](CC(C)C)NC1=O (cyclo(L[dL][NMeL]L[dP]Y)) | 7.83 ×10⁻⁶ cm/s | 0.76 ×10⁻⁶ cm/s

Results, then the molecule that gave them:

Row | Papp A→B [1] | Papp at 5 h, 50 µM [2] | Compound
4 | 0.1 ×10⁻⁶ cm/s | 0.01 ×10⁻⁶ cm/s | CC(C)C[C@@H]1NC(=O)[C@H](Cc2ccccc2)NC(=O)[C@H]([C@@H](C)O)N(C)C(=O)CN(C)C(=O)[C@H]([C@@H](C)O)NC(=O)[C@H](Cc2ccc(O)cc2)NC1=O (cyclo(FLYT[Sar][NMeT]))
5 | 0.11 ×10⁻⁶ cm/s | 0.04 ×10⁻⁶ cm/s | CC(C)C[C@@H]1NC(=O)[C@H](Cc2ccccc2)NC(=O)[C@H]([C@@H](C)O)NC(=O)CNC(=O)[C@H](C(C)C)NC(=O)[C@H](Cc2ccc(O)cc2)NC1=O (cyclo(FLYVGT))
6 | 0.06 ×10⁻⁶ cm/s | 0.01 ×10⁻⁶ cm/s | CC[C@H](C)[C@@H]1NC(=O)[C@H](Cc2ccc(O)cc2)NC(=O)[C@H](Cc2ccccc2)NC(=O)CNC(=O)[C@H](C(C)C)NC(=O)CNC1=O (cyclo(FYIGVG))
